From PMC10060569 (Frontiers in Pharmacology, 2023) come the findings set out here.

The target in this assay is T1, 20KVIV23/26N-hP2X1R (Homo sapiens, UniProt P51575, L23V/M21V/R20K/V22I).
T1 construct: expressed in transfected cells; host or cells: Xenopus laevis oocytes (cRNA injection)
T1 sequence (P51575 1-399 R20K/M21V/V22I/L23V): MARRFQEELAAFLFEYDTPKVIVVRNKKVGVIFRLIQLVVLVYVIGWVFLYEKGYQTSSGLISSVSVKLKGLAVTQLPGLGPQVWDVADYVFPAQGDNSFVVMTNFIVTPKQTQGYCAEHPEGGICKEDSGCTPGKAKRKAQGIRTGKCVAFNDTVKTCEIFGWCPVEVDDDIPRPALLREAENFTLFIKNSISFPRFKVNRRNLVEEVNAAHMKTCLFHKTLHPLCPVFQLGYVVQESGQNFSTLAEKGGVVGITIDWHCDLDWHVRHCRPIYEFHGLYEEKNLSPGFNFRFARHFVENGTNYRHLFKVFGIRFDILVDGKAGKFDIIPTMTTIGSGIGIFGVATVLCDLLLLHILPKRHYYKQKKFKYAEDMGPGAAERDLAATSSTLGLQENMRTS
The assay is described as follows: TEVC of ATP-induced currents, hP2X1R mutant in X. laevis oocytes (peak current protocol). Format: cell-based. The text has this: Oocyte expression plasmids encoding the wild-type (wt) and N-terminally His-tagged (His-) fusion constructs of the hP2X2R, hP2X3R, hP2X4R, and hP2X7R, and the mutant His-^20RMVL^23KVIV^23S^26N-hP2X1R, S^15V-rP2X3R, and His-S^15V-hP2X3R were the same as used in previous research ([Hausmann et al., 2006]; [Wolf et al., 2011]; [Hausmann et al., 2014]; [Obrecht et al., 2019]). In most cases, the N-terminal His-tagged variants of P2XRs were used here and in the previous studies to allow biochemical analyses on affinity-purified proteins using the same constructs. Although this was not required for the present study, it allows for better comparability with our previous studies. Capped cRNAs of different P2XRs were already available in the research group or were synthesized as previously described ([Schmalzing et al., 1991]; [Stolz et al., 2015]). cRNA was injected into collagenase-defolliculated X. laevis oocytes in aliquots of 41 nl or 23 nl (see Supplementary Table S1 for the amount of cRNA used for expression of the indicated P2XR) using a Nanoliter 2000 injector (World Precision Instruments, Sarasota, United States of America) as described previously ([Hausmann et al., 2014]; [Stolz et al., 2015]; [Obrecht et al., 2019]). To express the heteromeric hP2X2/3 receptor, cRNAs encoding His-hP2X2R and wt-hP2X3R were coinjected at a ratio (w/w) of 1:6. Oocytes were stored at 19°C in an oocyte ringer solution (ORi^+) containing 90 mM NaCl, 1 mM KCl, 1 mM CaCl2, 1 mM MgCl2, and 10 mM HEPES (Carl Roth, Karlsruhe, Germany) adjusted to pH 7.4 with NaOH and supplemented with 50 μg/ml gentamicin (AppliChem, Darmstadt, Germany). […]
Ion currents mediated by P2X receptors were evoked by the indicated concentration of ATP or α,β-meATP and were recorded 1 or 2 days after cRNA injection at ambient temperature at a holding potential of −60 mV by two-electrode voltage clamp (TEVC) as previously described ([Hausmann et al., 2006]). […]

Structures are written as SMILES. pIC50: −log10 of the molar value.

Broadly, the pIC50 is the negative decadic logarithm of the IC50, by convention in mol/L. Read a high pIC50 as a small IC50. Broadly, the inhibition is the change of the read-out against control, counted positive when it falls. Turning to `O=C(O)Cc1ccccc1Nc1c(Cl)cccc1Cl` [Diclofenac, diclofenac], the “reversibility of the inhibitory effect” value is given as “reversible”. This compound also had a pIC50 (1 µM ATP, peak current protocol, X. laevis oocytes) of 3.47. For the same compound, the inhibition at 1000 µM (read-out: Max. inhibition at 1 mM) worked out at 86.2%.
